From US8354522B2, “Immunostimulatory oligoribonucleotides” (Coley Pharmaceutical GmbH, priority 2005, dated 2013)
Read-outs that look alike come from different tables or passages of the source.

Columns and labels:
Bovine PBMC = assay: Cytokine production by bovine PBMC (48 hours, ELISA); type: cell-based; conditions: 10 μg/ml (H.D.) and 2.5 μg/ml (L.D.)
Experimental: FIG. 11 is a set of bar graphs showing differences between TLR8 ORN (SEQ ID NO:13) and TLR7/8 ORN (SEQ ID NO:21). SEQ ID NO:5 ORN was used as a control. Bovine PBMC were incubated with either 10 μg/ml ORN (HD) or 2.5 μg/ml ORN (LD) for 48 hours. Supernatants were collected and analyzed by ELISA. FIGS. 11a-c show the level of IL-12, IFN-γ, and TNF-alpha, respectively.
The assay was repeated with a TLR8 ORN (SEQ ID NO:13), a TLR 7/8 ORN (SEQ ID NO:21) and a control ORN (SEQ ID NO:5) (Table 3) at both a high dose (H.D., 10 μg/ml) and a low dose (L.D., 2.5 μg/ml).

Human PBMC = assay: Cytokine production upon human PBMC stimulation (ORN complexed to DOTAP, 16 h, ELISA); type: cell-based; design: key to IFN-alpha / TNF-alpha: +: cytokine production; −: no cytokine production; conditions: for IFN-alpha production upon PBMC stimulation (in words) / EC50 / IFN-alpha max activity / TNF-alpha max activity: human PBMC; for IFN-alpha / TNF-alpha: human PBMC stimulated for 16 h, supernatant ELISA; for EC50 / IFN-alpha max activity / TNF-alpha max activity: ORN complexed to DOTAP, 16 h; for EC50: full titration 2 μM to 0.9 nM; for IFN-alpha max activity / TNF-alpha max activity: mean max activity at 0.6 μM, 3-6 blood donors
Experimental: Human peripheral blood mononuclear cells (PBMCs) were isolated from healthy donors, plated, and stimulated in vitro with various test and control immunostimulatory agents for 16 hours. After 16 hours, the supernatants were collected and then analyzed by ELISA assay. N-U-R1-R2,-Containing Oligoribonucleotides were tested complexed to DOTAP and with full titration curves (7 concentrations), starting from 2 μM ORN complexed to 25 μg/ml DOTAP and with 1/3 dilution steps. Also included were certain negative controls, including medium alone and DOTAP (25 μg/ml culture well; “Liposomes”) alone. The control immunostimulatory agents included the imidazoquinoline R-848 (2 μM with 1/3 dilution steps and 7 concentrations) the reported ligand for TLR7, ORN having TLR8 motifs such as AU and AUU sequences (SEQ ID NO:13-SEQ ID NO:15) ORN having TLR7/8 motifs such as CU, GU and GUU sequences (SEQ ID NO:19-SEQ ID NO:23).
Human PBMC were stimulated with ORN complexed to DOTAP. After 16 hours supernatants were harvested and TNF-alpha and IFN-alpha levels were measured. Mean/Max activities at 0.6 μM of 3-6 blood donors and two individual experiments were determined. […] TLR8 and TLR7/8 ORN are divided by a red line.
Human PBMC were stimulated with ORN complexed to DOTAP. After 16 hours supernatants were harvested and IFN-alpha levels were measured. Mean/Max activities at 0.6 μM and EC50 of full titration curves (range: 2 μM to 0.9 nM) of 3-6 blood donors and two individual experiments were determined. […] Low EC50/high Max activity represents TLR7/8 ORN (FIG. 5a) whereas high EC50 and low Max activity represents TLR8 ORN (FIG. 5b).
The ORN sequences listed in Table 1 were tested for IFN-alpha and TNF-alpha production upon human PBMC stimulation. Human PBMC were stimulated for 16 h with the indicated ORN, and supernatants were harvested and cytokine production measured by ELISA. Table 2 summarizes the min/max activity and EC50 of ORN for IFN-alpha and TNF-alpha production.

isolated pDC = assay: IFN-alpha production upon isolated pDC stimulation; type: cell-based, human; conditions: 0.5 μM ORN complexed to 10 μg/ml DOTAP, 16 h
Experimental: FIG. 2 is a set of bar graphs depicting ORN induced cytokine production upon isolated pDC (FIG. 2a), monocytes (FIG. 2b) and mDC (FIG. 2c) stimulation. Cells were stimulated with 0.5 μM ORN complexed to 10 μg/ml DOTAP, 0.5 μM CpG ODN or DOTAP or media alone and IFN-alpha (FIG. 2a), TNF-alpha […] and IL-12p40 (FIG. 2c) were measured.
A similar assay testing different ORN sequences was performed using isolated pDC, monocytes and mDC stimulation. Cells were stimulated with 0.5 μM ORN complexed to 10 μg/ml DOTAP, 0.5 μM CpG ODN or DOTAP or media alone. After 16 h the supernatants were harvested and IFN-alpha, TNF-alpha and IL-12p40 levels were measured by ELISA.

Row | Substance | IFN-γ production (Bovine PBMC) | IFN-alpha production upon PBMC stimulation (in words) (Human PBMC) | IFN-alpha (Human PBMC) | TNF-alpha (Human PBMC) | IFN-alpha production upon pDC stimulation (in words) (isolated pDC) | EC50 (Human PBMC; read-out: IFN-alpha EC50) | EC50 (Human PBMC; read-out: TNF-alpha EC50) | IFN-alpha max activity (Human PBMC) | TNF-alpha max activity (Human PBMC)
1 | C*C*G*U*C*U*G*U*U*G*U*G*U*G*A*C*U*C (CCGUCUGUUGUGUGACUC; listed as RNA, chemistry not fully specified) [SEQ ID NO: 5, reference compound] | stimulated production of IFN-γ |  |  |  |  |  |  |  | 
2 | A*U*A*U*A*U*A*U*A*U*A*U*A*U*A*U*A*U*A*U (AUAUAUAUAUAUAUAUAUAU; chemistry not fully specified) [SEQ ID NO: 12] |  | no IFN-alpha cytokine production | − | + | no IFN-alpha cytokine production |  |  |  | 
3 | C*C*G*A*G*C*C*G*A*U*T*U*T*A*C*C (CCGAGCCGAUTUTACC; Oligoribonucleotide, chemistry of T and the '*' linkage is not given here, further chemistry not given here) [SEQ ID NO: 70] |  |  |  |  |  | 132 nM | 150 nM | 1702 pg/mL | 44904 pg/mL
4 | C*C*G*A*G*C*C*G*A*A*U*U*C*A*C*C (CCGAGCCGAAUUCACC; listed as RNA, chemistry not fully specified) [SEQ ID NO: 80] |  |  |  |  |  | 33 nM | 217 nM | 1225 pg/mL | 28108 pg/mL
5 | U*U*U*A*U*U*U*A*U*U*U*A*U*U*U*A*U*U*U*A (UUUAUUUAUUUAUUUAUUUA; chemistry not fully specified) [SEQ ID NO: 14] |  | induced IFN-alpha production | + | + |  |  |  |  | 
6 | C*C*G*A*G*C*C*G*C*A*U*A*C*C*C*C (CCGAGCCGCAUACCCC; listed as RNA, chemistry not fully specified) [SEQ ID NO: 45] |  |  |  |  |  | 1700 nM | 754 nM | 98.44 pg/mL | 10491 pg/mL
7 | C*C*G*A*G*C*C*G*A*C*U*G*U*A*C*C (CCGAGCCGACUGUACC; listed as RNA, chemistry not fully specified) [SEQ ID NO: 61] |  |  |  |  |  | 736 nM | 141 nM | 587.7 pg/mL | 42180 pg/mL
8 | C*C*G*A*G*C*C*G*A*G*U*U*U*A*C*C (CCGAGCCGAGUUUACC; listed as RNA, chemistry not fully specified) [SEQ ID NO: 58] |  |  |  |  |  | 63 nM | 203 nM | 1760 pg/mL | 36627 pg/mL
9 | A*A*U*A*A*U*A*A*U*A*A*U*A*A*U*A*A*U*A*A (AAUAAUAAUAAUAAUAAUAA; listed as RNA, chemistry not fully specified) [SEQ ID NO: 16] |  |  | − | + |  |  |  |  | 
10 | C*C*G*A*G*C*C*G*C*U*A*U*U*C*C*C (CCGAGCCGCUAUUCCC; listed as RNA, chemistry not fully specified) [SEQ ID NO: 51] |  |  |  |  |  | 582 nM | 125 nM | 2615 pg/mL | 23325 pg/mL
11 | C*C*G*A*G*C*C*G*C*U*A*U*C*C*C*C (CCGAGCCGCUAUCCCC; listed as RNA, chemistry not fully specified) [SEQ ID NO: 55] |  |  |  |  |  | > 2000 nM | 337 nM | 224.4 pg/mL | 15154 pg/mL
12 | C*C*G*A*G*C*C*G*A*T*U*U*C*A*C*C [SEQ ID NO: 79] (CCGAGCCGANUUCACC; Oligoribonucleotide, chemistry of T and the '*' linkage is not given here, further chemistry not given here) |  |  |  |  |  | 35 nM | 334 nM | 1152 pg/mL | 17728 pg/mL
13 | C*C*G*A*G*C*C*G*A*U*U*U*A*A*C*C (CCGAGCCGAUUUAACC; listed as RNA, chemistry not fully specified) [SEQ ID NO: 73] |  |  |  |  |  | 55 nM | 163 nM | 1395 pg/mL | 31619 pg/mL
14 | C*C*G*A*G*C*C*G*A*A*U*U*U*A*C*C (CCGAGCCGAAUUUACC; listed as RNA, chemistry not fully specified) [SEQ ID NO: 60] |  |  |  |  |  | 109 nM | 187 nM | 1463 pg/mL | 36562 pg/mL
15 | U*U*A*U*U*A*U (UUAUUAU; phosphorothioate linkages, chemistry not fully specified) [SEQ ID NO: 30] |  |  | − | + |  |  |  |  | 
16 | C*C*G*A*G*C*C*G*A*U*C*U*U*A*C*C (CCGAGCCGAUCUUACC; listed as RNA, chemistry not fully specified) [SEQ ID NO: 64] |  |  |  |  |  | 577 nM | 289 nM | 1421 pg/mL | 30712 pg/mL
17 | C*C*G*A*G*C*C*G*A*U*C*U*C*A*C*C (CCGAGCCGAUCUCACC; listed as RNA, chemistry not fully specified) [SEQ ID NO: 69] |  |  |  |  |  | 619 nM | 313 nM | 1031 pg/mL | 26915 pg/mL
18 | dN*dN*dN*dN*dN*A*U*A*U*A*U*A*U*dN*dN*dN*dN*dN*dN [SEQ ID NO: 9] |  |  | − | + |  |  |  |  | 
19 | C*C*G*A*G*C*C*G*C*C*G*C*C*C*C*C (CCGAGCCGCCGCCCCC; listed as RNA, chemistry not fully specified) [SEQ ID NO: 35] |  |  |  |  |  | > 2000 nM |  | 70.6 pg/mL | 2854 pg/mL
20 | C*C*G*A*G*C*C*G*A*T*U*U*C*A*C*C [SEQ ID NO: 78] (CCGAGCCGANUUCACC; Oligoribonucleotide, chemistry of T and the '*' linkage is not given here, further chemistry not given here) |  |  |  |  |  | 6 nM | 241 nM | 1609 pg/mL | 20126 pg/mL
21 | C*C*G*A*G*C*C*G*A*A*G*G*U*A*C*C (CCGAGCCGAAGGUACC; listed as RNA, chemistry not fully specified) [SEQ ID NO: 82] |  |  |  |  |  | > 2000 nM | 219 nM | 204 pg/mL | 12595 pg/mL
22 | C*C*G*A*G*C*C*G*A*G*C*U*C*A*C*C (CCGAGCCGAGCUCACC; listed as RNA, chemistry not fully specified) [SEQ ID NO: 81] |  |  |  |  |  | 667 nM | 802 nM | 842.9 pg/mL | 14519 pg/mL
23 | C*C*G*A*G*C*C*G*A*A*G*A*U*A*C*C (CCGAGCCGAAGAUACC; listed as RNA, chemistry not fully specified) [SEQ ID NO: 85] |  |  |  |  |  | > 2000 nM | 215 nM | 193.7 pg/mL | 17146 pg/mL
